Experimental findings from ChEMBL document CHEMBL1926626, “Design and synthesis of benzo[c,d]indolone-pyrrolobenzodiazepine conjugates as potential anticancer agents” (Bioorg Med Chem, 2012) are described below.

The source made the active and inactive calls. The rule behind the calls is not given here.

The subject of data set [1] is A-431. Briefly: Anticancer activity against human A431 cells after 48 hrs by MTT assay. As to conditions: A-431, 48 h. The data set is classed as functional, cell-based. Background: Formazan colour is commonly taken as a measure of viable cells.
Data set [2] deals with Nucleic Acid. Put plainly: Binding affinity to calf thymus DNA assessed as change in melting temperature at compound:DNA molar ratio of 1:5 after 18 hrs at 37 degC by thermal denaturation assay (RVb = 0.3 to 3.1 degC). Format: nucleic-acid assay. The following applies: Bos taurus.
Data set [3] has as its system HEK293. Briefly: Cytotoxicity activity against human HEK293 cells after 48 hrs by MTT assay. As to conditions: hek293, 48 h. Format: cell-based.
Data set [4] concerns COLO 205. Briefly: Anticancer activity against human COLO205 cells after 48 hrs by MTT assay. The data set is classed as functional, cell-based. As to conditions: COLO 205, 48 h.
For data set [5], the system named is A549. Briefly: Anticancer activity against human A549 cells after 48 hrs by MTT assay. As to conditions: A549, 48 h.
Data set [6] has as its system PC-3. Briefly: Anticancer activity against human PC3 cells after 48 hrs by MTT assay. Format: functional, cell-based. As to conditions: PC-3, 48 h.
The test system of data set [7] is A549. Briefly: Induction of cell cycle arrest in human A549 cells assessed as accumulation at G1 phase at 1 uM after 48 hrs by propidium iodide staining-based flow cytometry (reference value: 76.31 %). The data set is classed as functional. For orientation: Flow cytometry measures light scatter and fluorescence of single cells or particles in a stream.
In data set [8] the test system is A549. Put plainly: Induction of apoptosis in human A549 cells assessed as necrotic cells at 1 uM after 48 hrs by annexin V-FITC and propidium iodide staining method (RVb = 0.04 %). The data set is classed as functional.
The subject of data set [9] is A549. Briefly: Induction of apoptosis in human A549 cells assessed as late apoptotic cells at 1 uM after 48 hrs by annexin V-FITC and propidium iodide staining method (RVb = 0.02 %). The data set is classed as functional.
Data set [10] deals with A549. Put plainly: Induction of apoptosis in human A549 cells assessed as early apoptotic cells at 1 uM after 48 hrs by annexin V-FITC and propidium iodide staining method (RVb = 0.01 %). Format: functional.
The test system of data set [11] is A549. Put plainly: Induction of cell cycle arrest in human A549 cells assessed as accumulation at G2 phase at 1 uM after 48 hrs by propidium iodide staining-based flow cytometry (reference value: 9.23 %). Format: functional.
The subject of data set [12] is A549. Put plainly: Induction of cell cycle arrest in human A549 cells assessed as accumulation at S phase at 1 uM after 48 hrs by propidium iodide staining-based flow cytometry (reference value: 13.31 %). Format: functional.
The subject of data set [13] is A549. Briefly: Induction of apoptosis in human A549 cells assessed as viable cells at 1 uM after 48 hrs by annexin V-FITC and propidium iodide staining method (RVb = 99.93 %). Format: functional. As to conditions: A549, 48 h, read-out: Activity.
Data set [14] has as its system A549. Briefly: Induction of cell cycle arrest in human A549 cells assessed as accumulation at Sub G1 phase at 1 uM after 48 hrs by propidium iodide staining-based flow cytometry (reference value: 0.67 %). Format: functional.
The subject of data set [15] is A549. Briefly: Induction of apoptosis in human A549 cells assessed as nuclear condensation at 2 uM after 48 hrs by Hoechst 33258 staining-based fluorescence microscopy relative to control. The data set is classed as functional, cell-based.
Data set [16] deals with A549. Briefly: Induction of cell cycle arrest in human A549 cells assessed as accumulation at G2 phase at 2 uM after 48 hrs by propidium iodide staining-based flow cytometry (reference value: 9.23 %). Format: functional.
Data set [17] concerns A549. Briefly: Induction of apoptosis in human A549 cells assessed as necrotic cells at 2 uM after 48 hrs by annexin V-FITC and propidium iodide staining method (RVb = 0.04 %). The data set is classed as functional.
In data set [18] the test system is A549. Put plainly: Induction of apoptosis in human A549 cells assessed as early apoptotic cells at 2 uM after 48 hrs by annexin V-FITC and propidium iodide staining method (RVb = 0.01 %). The data set is classed as functional.
In data set [19] the test system is A549. Put plainly: Induction of apoptosis in human A549 cells assessed as viable cells at 2 uM after 48 hrs by annexin V-FITC and propidium iodide staining method (RVb = 99.93 %). As to conditions: A549, 48 h, read-out: Activity. The data set is classed as functional.
The subject of data set [20] is A549. Briefly: Induction of cell cycle arrest in human A549 cells assessed as accumulation at S phase at 2 uM after 48 hrs by propidium iodide staining-based flow cytometry (reference value: 13.31 %). Format: functional.
The test system of data set [21] is A549. Briefly: Induction of apoptosis in human A549 cells assessed as activation of caspase-3 activity at 1 to 2 uM after 48 hrs by ELISA relative to control. Format: functional. On the technique in general: ELISA stands for enzyme-linked immunosorbent assay.
Data set [22] has as its system A549. Briefly: Induction of cell cycle arrest in human A549 cells assessed as accumulation at Sub G1 phase at 2 uM after 48 hrs by propidium iodide staining-based flow cytometry (reference value: 0.67 %). Format: functional.
Data set [23] has as its system A549. Put plainly: Induction of apoptosis in human A549 cells assessed as late apoptotic cells at 2 uM after 48 hrs by annexin V-FITC and propidium iodide staining method (RVb = 0.02 %). The data set is classed as functional.
Data set [24] deals with A549. Briefly: Induction of cell cycle arrest in human A549 cells assessed as decrease in accumulation at G0/G1 phase after 48 hrs by propidium iodide staining-based flow cytometry. Format: functional.
The subject of data set [25] is A549. Briefly: Induction of apoptosis in human A549 cells assessed as oligoneucleosomal DNA fragmentation at 1 to 2 uM after 48 hrs by agarose gel electrophoresis technique. The data set is classed as functional, cell-based.
Data set [26] has as its system A549. Briefly: Induction of cell cycle arrest in human A549 cells assessed as accumulation at G1 phase at 2 uM after 48 hrs by propidium iodide staining-based flow cytometry (reference value: 76.31 %). Format: functional.
The subject of data set [27] is A549. Briefly: Induction of cell cycle arrest in human A549 cells assessed as accumulation at subG1 phase after 48 hrs by propidium iodide staining-based flow cytometry. Format: functional.

On to `COc1cc2c(cc1OCCCCCCn1c(=C(C#N)C#N)c3cccc4cccc1c43)N=C[C@@H]1CCCN1C2=O`, for which the IC50 (in general, the point on the concentration scale where inhibition reaches its midpoint) in data set [1] was 1.25 µM; in data set [4], 16.7 µM; in [5], 18.9 µM; in [6], 19.3 µM. Further, in data set [2], the ΔTm (as a rule, the change in melting temperature against a reference sample) was found to be 2 °C. Moreover, the Activity result in data set [3] is “Non-toxic”.
In the case of `COc1cc2c(cc1OCCCCCN1C(=O)c3cccc4cccc1c34)N=C[C@@H]1CCCN1C2=O`, the IC50 amounted to 3.71 µM in data set [1], 9.76 µM in data set [4], 21.9 µM in [5] and 15.5 µM in data set [6]. Further, the ΔTm in [2] was determined as 5.2 °C. In [3], the Activity result is “Non-toxic”.
Take `COc1cc2c(cc1OCCCCCn1c(=C(C#N)C#N)c3cccc4cccc1c43)N=C[C@@H]1CCCN1C2=O`: the IC50 in data set [1] came to 4.46 µM; in data set [4], 25.9 µM; in data set [5], 5.86 µM; in [6], 36.5 µM. The shift in melting temperature (ΔTm) in data set [2] amounted to 2.8 °C. For the same compound, the Activity entry in data set [3] is listed as “Non-toxic”.
As to `COc1cc2c(cc1OCCCCCN1c3cccc4cccc(c34)S1(=O)=O)N=C[C@@H]1CCCN1C2=O`, the IC50 in data set [1] was 4.67 µM; in data set [4], 15.1 µM; in data set [5] it was 14.4 µM; in data set [6], 9.7 µM. The ΔTm in [2] was determined as 5.6 °C. Besides, the Activity entry in [3] was “Non-toxic”.
As to `COc1cc2c(cc1O)N=C[C@@H]1CCCN1C2=O`, the IC50 in data set [1] came out at 1.65 µM; in data set [4] it was 0.86 µM; in data set [5], 1.11 µM; in data set [6] it was 1.19 µM. The ΔTm in data set [2] is 0.7 °C. Also, the Activity is recorded as 40.78% in [7]; 1.91% in data set [8]; 17.73% in data set [9]; 39.1% in [10]; 8.57% in data set [11]; 38.93% in data set [12]. For the same compound, in [14], the Activity was found to be 10.15%. Besides, the viability at 1 µM in data set [13] was 41.2%. In addition, the result in data set [15] was Active.
In the case of `COc1cc2c(cc1OCCCn1c(=C(C#N)C#N)c3cccc4cccc1c43)N=C[C@@H]1CCCN1C2=O`, the half-inhibitory concentration (IC50) in [1] came to 4.67 µM; in [4], 6.1 µM; in data set [5] it was 4.86 µM; in data set [6] it was 17.9 µM. Further, the ΔTm in [2] was determined as 3.4 °C. Further, the Activity entry in data set [3] was “Non-toxic”.
For the compound `COc1cc2c(cc1OCCCCCCN1c3cccc4cccc(c34)S1(=O)=O)N=C[C@@H]1CCCN1C2=O`, the IC50 in data set [1] stood at 1.72 µM; in data set [4], 1.21 µM; in data set [5], 1.05 µM; in data set [6] it was 1.52 µM. Also, the Activity in [16] is 0.37%; in data set [17], 2.77%; in data set [3], “Non-toxic”; in data set [18], 26.07%; in data set [7], 36.77%; in data set [8], 1.93%. The Activity in [20] was 9.93%; in data set [22], 66.94%; in [9], 24.94%; in data set [23], 42.4%; in data set [10], 32.55%; in [24], “Dose-dependent effect”. Also, the Activity was 3.75% in data set [11]; 15.34% in [12]; 20.48% in [26]; 42.83% in data set [14]; “Dose-dependent effect” in data set [27]. For the same compound, the ΔTm in [2] was determined as 7.6 °C. Also, the viability at 2 µM in [19] came to 28.8%. Moreover, in data set [21], the “fold change (FC)” value worked out at 4. For the same compound, the outcome in data set [25] and in data set [15] was Active. Besides, the viability at 1 µM in data set [13] was determined as 40.6%.
Take `COc1cc2c(cc1OCCCN1c3cccc4cccc(c34)S1(=O)=O)N=C[C@@H]1CCCN1C2=O`: the IC50 in [1] was found to be 9.56 µM; in [4] it was 7.66 µM; in [5], 10 µM; in [6], 9.8 µM. For the same compound, in data set [2], the ΔTm amounted to 4.9 °C. The Activity entry in [3] is given as “Non-toxic”.
In the case of `COc1cc2c(cc1OCCCCN1c3cccc4cccc(c34)S1(=O)=O)N=C[C@@H]1CCCN1C2=O`, the IC50 was found to be 3.34 µM in data set [1], 3.71 µM in [4], 19.6 µM in data set [5] and 14.9 µM in [6]. The ΔTm in [2] was 3.9 °C. Also, in data set [3], the Activity entry was “Non-toxic”.
As for `COc1cc2c(cc1OCCCCN1C(=O)c3cccc4cccc1c34)N=C[C@@H]1CCCN1C2=O`, the 50% inhibitory concentration (IC50) in data set [1] came out at 1.34 µM; in data set [4], 3.31 µM; in data set [5] it was 9.8 µM; in [6], 3.23 µM. In addition, the ΔTm in [2] worked out at 4 °C. In data set [3], the Activity entry is recorded as “Non-toxic”.
Consider `COc1cc2c(cc1OCCCCCCN1C(=O)c3cccc4cccc1c34)N=C[C@@H]1CCCN1C2=O`, for which the IC50 in data set [1] was determined as 3.31 µM; in [4], 14.3 µM; in [5], 32.7 µM; in data set [6] it was 4.89 µM. Moreover, in data set [2], the ΔTm came out at 2.1 °C. Moreover, in data set [3], the Activity result is on record as “Non-toxic”.
Regarding `COc1cc2c(cc1OCCCN1C(=O)c3cccc4cccc1c34)N=C[C@@H]1CCCN1C2=O`, the IC50 in data set [1] amounted to 3.04 µM; in data set [4], 8.65 µM; in [5], 13.8 µM; in data set [6], 7.67 µM. In addition, the ΔTm in data set [2] was found to be 3.2 °C. Besides, the Activity result in data set [3] is listed as “Non-toxic”.
As for `COc1cc2c(cc1OCCCCn1c(=C(C#N)C#N)c3cccc4cccc1c43)N=C[C@@H]1CCCN1C2=O`, the IC50 in data set [1] stood at 2.5 µM; in [4], 2.95 µM; in [5], 25.5 µM; in data set [6], 14.8 µM. The thermal shift (ΔTm) in data set [2] was 2.7 °C. In data set [3], the Activity entry is given as “Non-toxic”.
For the compound `COc1cccc2c1C(=O)c1c(O)c3c(c(O)c1C2=O)C[C@@](O)(C(=O)CO)C[C@@H]3O[C@H]1C[C@H](N)[C@H](O)[C@H](C)O1` [DOXORUBICIN], the IC50 was 0.03 µM in data set [1], 1.69 µM in data set [4] and 2.51 µM in [6].
